Data as given in patent US20040234527A1, “Peptides for use as translocation factors” (priority 2001, published 2004).
Several values for one entry are separate records, joined by “and”; a condition that tells them apart may be missing. Equal entries are not always repeated.

What was measured:
[1] = tested on: Hela cells; assay: β-Galactosidase activity recovered from cell extracts after lipofectin delivery or translocation (4 hours); assay type: cell-based
Procedure: (§1) The quantitative measurement of translocation was carried out by reading the activity of a β-Galactosidase enzyme that was included as part of a fusion protein with the translocation agents. When provided with the appropriate galactoside substrate, the enzyme deglycosylates the substrate leading to the accumulation of dioxetane. During a following incubation in a different buffer, the dioxetane becomes deprotonated and decomposes with emission of light (425 nm) that can be read using a luminometer. This system, therefore, provided a sensitive means of detecting the amount of the β-Galactosidase present in the samples, and ultimately, the amount of fusion protein delivered into the cells.
The experiments were carried out using 8-well chamber slides. 3×10^4 Hela cells were seeded into each well, suplemented with 400 μl RPMI+10% FCS medium and incubated overnight at 37° C. and 5% CO2. The following day, the appropriate dilutions of protein were made into RPMI medium and added to the wells. Both lipofectin delivery and translocation experiments were carried out for 4 hours.
The experiments were carried out on two different days: the first day a negative control β-Galactosidase and the H1.4B-Bgal were tested, and the second day the antennapedia fusion (Antp-βgal) was tested. A lipofectin delivery of β-Galactosidase, provided by Roche, was performed on both days as positive control for delivery into the cells.
(§2) It was decided to start with the amount of each that gave a value close to 6×10^7 rlu, as this is the limit of the equipment's capacity. From that value, three consecutive ⅕ fold dilutions were made in each case.
(§3) Therefore, the original activity of the different proteins was also measured in parallel to the activity recovered after translocation, in order to make sure that all the proteins were standardised to an original maximum activity of around 6×10^7 rlu.
The results after translocation were obtained by reading the β-Galactosidase recovered from the cell extracts and are shown in Tables 6 and 7. […] In any case, the values for the biggest amounts of β-Galactosidase protein are clearly lower than those obtained from the delivery systems.

[2] = β-Galactosidase activity of the protein constructs before delivery (luminometer); assay type: biochemical; conditions: 80 ng protein; Table 6 (first day)
Procedure: as §1, §2, §3

With “β-Gal positive control (Roche): β-Galactosidase provided by Roche, delivered with lipofectin reagent as positive control for delivery into the cells” the Activity after transfection ([1]; 1.6 ng protein, Table 6 (first day)) was 50.353 rlu and 47.212 rlu, the Activity after transfection ([1]; 1.6 ng protein, Table 7 (second day)) was 40.121 rlu and 33.578 rlu and the Activity after transfection ([1]; 8 ng protein, Table 6 (first day)) was 140.342 rlu and 162.319 rlu. For the same substance, the Activity after transfection ([1]; 8 ng protein, Table 7 (second day)) was 164.745 rlu and 157.913 rlu, the Activity after transfection ([1]; 40 ng protein, Table 6 (first day)) was 635.228 rlu and 675.640 rlu and the Activity after transfection ([1]; 40 ng protein, Table 7 (second day)) was 715.773 rlu and 744.405 rlu.
With “β-Galactosidase: β-Galactosidase enzyme without translocation agent, negative control” the Protein activity [2] was “overload”, the Activity after transfection ([1]; 640 pg protein, Table 6 (first day)) was 25.076 rlu and 28.710 rlu and the Activity after transfection ([1]; 3.2 ng protein, Table 6 (first day)) was 29.527 rlu and 35.227 rlu. For the same substance, the Activity after transfection ([1]; 15 ng protein, Table 6 (first day)) was 56.941 rlu, the Activity after transfection ([1]; 16 ng protein, Table 6 (first day)) was 55.164 rlu and the Activity after transfection ([1]; 80 ng protein, Table 6 (first day)) was 242.200 rlu and 298.589 rlu.
